The nature of the first data set: in vitro. Conditions: human, hela cells, % viability.
In the case of `CC(C)Nc1cncc(OCCCc2ccncc2)n1` [CBK115881], the viability at 28.5 h, 10 µM was determined as 90.6%.

As to `Cc1ccc(OCC(O)Cn2c(=N)n(CCN3CCCCC3)c3ccccc32)cc1` (stereo not shown) [CBK266375C], the viability at 28.5 h, 10 µM turned out to be 98.9%.

With `CC(C)NC(=O)[C@@H](C)C1CC[C@@]2(C)CC[C@H](NC(=O)C3CC3)[C@@H](C)[C@@H]2[C@H]1O` (stereo partly shown) [CBK289444], the viability at 28.5 h, 10 µM is 85%.

As to `Cc1cnc(CNC(=O)C2(c3ccccc3)CCCC2)cn1` [CBK149531], the viability at 28.5 h, 10 µM is 101%.

Regarding `O=C(Nc1ccc(Cc2ccc(NC(=O)c3ccc(Br)cc3)c(O)c2)cc1O)c1ccc(Br)cc1` [CBK262086], the viability at 28.5 h, 10 µM was determined as 102%.

For the compound `COc1cc(CN2CCC3(CC2)CN(CCO)c2ccccc23)cc(OC)c1OC` [CBK131524], the viability at 28.5 h, 10 µM was determined as 94.9%.

For the compound `CCn1ncc(CN2C3CCC2CC(O)(c2ccc(F)cc2)C3)c1C` (stereo not shown) [CBK282973], the viability at 28.5 h, 10 µM is 100%.

With `O=C(O)COc1ccc(Br)cc1/C=C1\N=C(SCc2ccccc2)SC1=O` [CBK265725], the viability at 28.5 h, 10 µM stood at 110%.

For `COC(=O)NC(O)C(=O)c1ccco1` (stereo not shown) [CBK027757], the viability at 28.5 h, 10 µM came out at 94.7%.

For `COCCNS(=O)(=O)c1ccc(C)cc1` [CBK002332], the viability at 28.5 h, 10 µM was determined as 82.5%.

With `Clc1nc(NCCN2CCOCC2)nc(N2CCCCCC2)n1` [CBK027412], the viability at 28.5 h, 10 µM came to 98.9%.

Consider `O=C1NC[C@@H](Cc2ccccc2)NC(=O)C2(C/C=C/COc3ccccc31)CCN(C(=O)CN1CCCC1)CC2` [CBK292184], for which the viability at 28.5 h, 10 µM turned out to be 103%.

Take `Cc1noc(C)c1NC(=O)CN1CCOCC1` [CBK200381]: the viability at 28.5 h, 10 µM is 103%.

With `COc1ccccc1N1CCN(CCC(=O)Nc2cccc(F)c2)CC1` [CBK264254C], the viability at 28.5 h, 10 µM was determined as 92.8%.

Take `CCOc1ccc(/C=C2\SC(=O)NC2=S)cc1` [CBK027996]: the viability at 28.5 h, 10 µM worked out at 90.9%.

Consider `CC(=O)N/C(=C/c1ccc([N+](=O)[O-])cc1)C(=O)Nc1cccc(C(=O)O)c1` [CBK264495], for which the viability at 28.5 h, 10 µM came out at 94.8%.

Regarding `COc1ccc(S(=O)(=O)NCCNC(=O)c2cc(-c3cccnc3)cnc2NCc2ccc3c(c2)OCO3)cc1` [CBK076379], the viability at 28.5 h, 10 µM amounted to 101%.

Take `CC1CCN(S(=O)(=O)c2cccc(C(=O)NNC(=O)c3cccc([N+](=O)[O-])c3)c2)CC1` [CBK266774]: the viability at 28.5 h, 10 µM came out at 98%.

Consider `COc1ncc(-c2cncc(N3CCCN(C)CC3)n2)c(OC)n1` [CBK065286], for which the viability at 28.5 h, 10 µM was 104%.

`C=Cn1cc(CN2CCCC(c3cc4cccnc4[nH]3)C2)c(C)n1` (stereo not shown) [CBK284944]: the viability at 28.5 h, 10 µM was 115%.

On to `COc1ccccc1NC(=O)CCCC(=O)O` [CBK261323], for which the viability at 28.5 h, 10 µM was 101%.

For `Cc1nc(CN2CCN(CCc3ccccc3)CC2)cs1` [CBK126457], the viability at 28.5 h, 10 µM came out at 87.6%.

For the compound `CCOC(=O)c1cn([C@H]2CC[C@H](O)CC2)cc(Oc2ccccc2)c1=O` [CBK307565], the viability at 28.5 h, 10 µM worked out at 108%.

For `CCN(CC)CC(O)Cn1c(-c2cccc([N+](=O)[O-])c2)nc(=S)c2c1CCCC2` (stereo not shown) [CBK265700], the viability at 28.5 h, 10 µM is 97.1%.

For the compound `O=C(O)COCC(=O)N1CCCC(c2nc(-c3ccccc3)c3ccccn23)C1` (stereo not shown) [CBK046806], the viability at 28.5 h, 10 µM came to 86.1%.

Turning to `CN(Cc1cnn(C)c1)c1nccc(N2CCN[C@H]3CS(=O)(=O)C[C@H]32)n1` [CBK306964], the viability at 28.5 h, 10 µM turned out to be 100%.

As for `CC(=O)N1CCN([C@H]2[C@@H]3OC[C@@H](O3)[C@@H](NC(=O)NC3CCCCC3)[C@@H]2O)CC1` [CBK288810], the viability at 28.5 h, 10 µM came to 101%.

For the compound `O=C1NC2(CCSCC2)Oc2ccccc21` [CBK007488], the viability at 28.5 h, 10 µM came to 79.3%.

In the case of `O=C(Nc1nnc(C2=COCCO2)o1)c1cccc(F)c1` [CBK287408], the viability at 28.5 h, 10 µM amounted to 85.3%.

In the case of `COc1cc2c(cc1NC(=O)CN(C)S(=O)(=O)c1ccc(Cl)cc1)oc1ccccc12` [CBK267404], the viability at 28.5 h, 10 µM is 93.6%.

Turning to `O=C(NCc1ccc(CO)cc1)[C@@H]1CN(Cc2ccccc2)C[C@H]1C(=O)c1ccc(F)cc1` [CBK286430], the viability at 28.5 h, 10 µM was 97.8%.

Consider `CCOC(=O)c1[nH]c2ccccc2c1NC(=O)CN1C(=O)CSC1=O` [CBK160163], for which the viability at 28.5 h, 10 µM was determined as 102%.

Consider `O=C(O)c1ccc(S(=O)(=O)c2ccc(O)cc2)cc1` [CBK261411], for which the viability at 28.5 h, 10 µM stood at 95.2%.

Consider `O=C(NCCN1CCOCC1)C1(c2ccccc2)CCCC1` [CBK149538], for which the viability at 28.5 h, 10 µM is 95.2%.

`CCn1c(CC2CCN(c3nc(C)cc(C)c3C#N)CC2)nn(C)c1=O` [CBK307027]: the viability at 28.5 h, 10 µM came to 111%.

For `COc1ccc(Cn2c(C)nc3c([N+](=O)[O-])c(C)c(C)cc32)cc1` [CBK115370], the viability at 28.5 h, 10 µM was found to be 102%.

As to `COCCNc1cc(-c2ccc(SC)cc2)ncn1` [CBK090795], the viability at 28.5 h, 10 µM came out at 105%.

For `OCC1CCCN1c1nc(-c2ccc(Oc3ccccc3)cc2)cn2ccnc12` (stereo not shown) [CBK066713], the viability at 28.5 h, 10 µM was 100%.

For the compound `CCC(=O)N1CCC[C@H]1Cn1nc(-c2ccc(F)cc2)ccc1=O` [CBK284253], the viability at 28.5 h, 10 µM was determined as 81.1%.

Turning to `CC(C)(C)OC(=O)N1CCC(C(=O)NCc2ccccn2)CC1` [CBK305696], the viability at 28.5 h, 10 µM is 103%.

As for `Cn1ccnc1C1(O)CCN(C(=O)CC2CCCCC2)CC1` [CBK283647], the viability at 28.5 h, 10 µM came out at 97.2%.

In the case of `CC(Sc1nc(C2CC2)n(-c2ccccc2)n1)C(=O)N1CCNC1=O` (stereo not shown) [CBK297144], the viability at 28.5 h, 10 µM amounted to 97.2%.

With `Cc1cc(C)n(C(C)CC(=O)NC(C)c2nc3ccccc3s2)n1` (stereo not shown) [CBK281469], the viability at 28.5 h, 10 µM stood at 93.2%.

Turning to `O=C(NCCCc1ccccn1)c1ccnc2ccc(Cl)cc12` [CBK282618], the viability at 28.5 h, 10 µM worked out at 92.4%.

For `CN1CCN(C(=O)C2CCCN(S(=O)(=O)c3ccc(Br)cc3)C2)CC1` (stereo not shown) [CBK269006], the viability at 28.5 h, 10 µM came to 107%.

Consider `N[C@H]1C[C@H](c2nnc(Cn3ncc(N4CCCC4)cc3=O)n2C2CC2)C1` [CBK307039], for which the viability at 28.5 h, 10 µM turned out to be 107%.

On to `COc1ccc(-c2cc(CC3(NCc4ccccc4O)COC3)no2)cc1` [CBK289697], for which the viability at 28.5 h, 10 µM stood at 91.3%.

As to `Cc1cc(N2C(=O)c3oc4ccccc4c(=O)c3C2c2ccncc2)no1` (stereo not shown) [CBK287780], the viability at 28.5 h, 10 µM came out at 103%.

`O=C(O)c1ccccc1S(=O)(=O)CC(=O)N1CCCCC1` [CBK287180]: the viability at 28.5 h, 10 µM came to 89.1%.

For the compound `N#CCCCN1CCN(c2nccnc2OCCN2C(=O)CCC2=O)CC1` [CBK084299], the viability at 28.5 h, 10 µM was 102%.

As to `Cc1nn(CC(=O)N2CCCC2)c(=O)c2cc3occc3n12` [CBK283621], the viability at 28.5 h, 10 µM came out at 84.5%.

For `CCc1nccn1CCC(=O)NC1CCN(Cc2ccncc2)CC1` [CBK306813], the viability at 28.5 h, 10 µM was found to be 107%.

As for `COc1cccc(NC(=O)c2cc(-c3ccc(C(=O)N4CCOCC4)cc3)cnc2N)c1` [CBK160203], the viability at 28.5 h, 10 µM turned out to be 89.4%.

For the compound `Cc1ccc(C(C)C(=O)N2CCC(O)(Cn3ccnc3C)CC2)cc1` (stereo not shown) [CBK284660], the viability at 28.5 h, 10 µM was 83.8%.

For `CC(C)(C)OC(=O)N1CCCC1C1COc2ccccc2C1=O` (stereo not shown) [CBK281579], the viability at 28.5 h, 10 µM worked out at 89.2%.

`CN1CCN(CC(O)COCc2ccc3c(c2)OCO3)CC1` (stereo not shown) [CBK278260C]: the viability at 28.5 h, 10 µM was found to be 81.4%.

For the compound `O=C(Nc1cccc(NC(=S)NC(=O)c2ccc(Cl)cc2Cl)c1)c1ccccc1F` [CBK264828], the viability at 28.5 h, 10 µM was 107%.

Consider `Cc1cc(C)cc(OCC(=O)Nc2ccc3[nH]c(=O)[nH]c3c2)c1` [CBK269676], for which the viability at 28.5 h, 10 µM is 99.5%.

Consider `O=C(CN1C(=O)c2ccccc2C1=O)N1CCN(Cc2ccc3c(c2)OCO3)CC1` [CBK074846], for which the viability at 28.5 h, 10 µM was 97.3%.

As for `CC1(C)CC(NC(=O)C2CCCN(S(C)(=O)=O)C2)c2ccccc2O1` (stereo not shown) [CBK304365], the viability at 28.5 h, 10 µM was determined as 98.2%.

With `O=S(=O)(Nc1nnn[nH]1)c1ccc(-c2ccccc2)cc1` [CBK062381], the viability at 28.5 h, 10 µM amounted to 99.7%.

`O=C(CSc1nnc(Cc2cccs2)n1-c1ccccc1)c1c[nH]c2ccccc12` [CBK268290]: the viability at 28.5 h, 10 µM was 88%.

Take `FC(F)(F)Sc1ccc(COc2cccc3cccnc23)cc1` [CBK002776]: the viability at 28.5 h, 10 µM is 94.5%.

Turning to `CN(CC(=O)C(C#N)c1ccccc1)Cc1ccccc1` (stereo not shown) [CBK269432], the viability at 28.5 h, 10 µM was found to be 96.8%.

On to `CN(Cc1ccccc1)Cc1cc(CC2(NCc3ccccc3)COC2)no1` [CBK289645], for which the viability at 28.5 h, 10 µM was determined as 88.9%.

On to `Cc1ccc(C)c(NC(=O)CCNC(=O)c2cnn3cc(C)cnc23)c1` [CBK306590], for which the viability at 28.5 h, 10 µM amounted to 87.5%.

Regarding `O=c1oc2ccccc2c2nc(-c3ccncc3)ncc12` [CBK288536], the viability at 28.5 h, 10 µM came out at 108%.

As to `O=C(NCc1cccs1)NC1CCCc2c1cnn2CCO` (stereo not shown) [CBK305658], the viability at 28.5 h, 10 µM is 100%.

Consider `Cc1noc(CN2CCNC(=O)C2c2ccccc2C(F)(F)F)n1` (stereo not shown) [CBK306405], for which the viability at 28.5 h, 10 µM was determined as 98.2%.

With `CCn1cc(CCC(=O)NC2CCCOC2)c2ccccc21` (stereo not shown) [CBK283256], the viability at 28.5 h, 10 µM was determined as 88.7%.

As for `CCCSc1nc2c(c(=O)[nH]1)C(c1ccncc1)C1=C(CCCC1=O)N2` (stereo not shown) [CBK287606], the viability at 28.5 h, 10 µM came out at 106%.

Take `Cc1nc(-c2ccsc2)sc1C(=O)NC1CCCN(c2ncccn2)C1` (stereo not shown) [CBK305632]: the viability at 28.5 h, 10 µM came out at 87.6%.

Take `CN(C)c1nc(Oc2ccc(OCCOc3ccccc3)nn2)nc(N(C)C)n1` [CBK264976]: the viability at 28.5 h, 10 µM was 104%.

In the case of `CC(=O)N/C(=C\c1ccccc1)C(=O)NC(C)C(=O)O` (stereo not shown) [CBK261491], the viability at 28.5 h, 10 µM was determined as 99.1%.

With `C/C(CCc1ccccc1)=N\NC(=O)c1ccc(CN2CCOCC2)cc1` [CBK262752], the viability at 28.5 h, 10 µM was determined as 99.5%.

In the case of `O=C(O)C1CCCCN1Cc1ccccc1` (stereo not shown) [CBK261687], the viability at 28.5 h, 10 µM came to 94.9%.

In the case of `Cc1c(C(=O)C2=C(O)C(=O)N(CCCN(C)C)C2c2cccnc2)cnn1-c1ccccc1` (stereo not shown) [CBK269312], the viability at 28.5 h, 10 µM stood at 93.8%.

Still in this data set, the particulars now being: human, hela cells, % viability, bulk resorufin, single well.
`CC(=O)N1CCC2(CC1)OCc1cc(-c3cccc4cccnc34)ccc1O2` [CBK060969]: the viability at 28.5 h, 10 µM is 88.4%.

On to `O=C(Nc1ccc(NC(=O)c2cccc([N+](=O)[O-])c2)c(Cl)c1)c1cccc([N+](=O)[O-])c1` [CBK261196], for which the viability at 28.5 h, 10 µM was 105%.

Source of the values: publication PMC12040169 (PLOS Biology, 2025).
